Measurements: patent US12098148B2, “Therapeutic compounds” (C4X Discovery Limited, priority 2018, dated 2024)

Columns and labels:
[1] = target: human KEAP1 (N-term, residues 321-609) (Homo sapiens, UniProt Q14145); experiment: biochemical;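 also: fluorescence polarization competition assay of Kelch domain binding to NRF2, 12-point 1:3 dilution series from 10 µM, read after 1 h at room temperature, floor 10 nM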
[2] = tested on: NQO1 mRNA in BEAS-2B cells; experiment: Beas2B NQO1 mRNA cell based assay; set-up: species or system human; conditions: Homo sapiens, BEAS-2B, 24 h, 24 h compound treatment, increase in NQO1 mRNA vs vehicle (0.1% DMSO), read-out: EC50
Procedure, shortened: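 BEAS-2B human bronchial epithelial cells exposed to compound for 24 h at 37 °C, 5% CO2. NQO1 mRNA measured by one-step TaqMan RT-qPCR on unpurified lysates, normalized to β-actin; relative expression by ΔΔCT method.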

Chain of human KEAP1 (N-term, residues 321-609) (Q14145 321-609): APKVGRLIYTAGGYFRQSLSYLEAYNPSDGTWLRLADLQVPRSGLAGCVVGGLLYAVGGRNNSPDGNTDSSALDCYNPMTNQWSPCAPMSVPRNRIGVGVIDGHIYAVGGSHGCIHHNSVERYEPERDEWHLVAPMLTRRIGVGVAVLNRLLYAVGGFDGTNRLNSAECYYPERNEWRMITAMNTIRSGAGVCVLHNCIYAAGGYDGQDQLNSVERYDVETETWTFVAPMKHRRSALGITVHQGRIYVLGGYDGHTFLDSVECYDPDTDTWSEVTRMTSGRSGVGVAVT

SMILES	IC50 [1] [nM]	EC50 [2] [nM]
Cc1nnc(COc2ccc(Br)c3c2[C@@H](CN2Cc4ccccc4C2=O)N(C(=O)[C@@H]2CCCC[C@@H]2C(=O)O)CC3)o1 [Example 36, (1S,2R)-2-((S)-5-bromo-8-((5-methyl-1,3,4-oxadiazol-2-yl)methoxy)-1-((1-oxoisoindolin-2-yl)methyl)-1,2,3,4-tetrahydroisoquinoline-2-carbonyl)cyclohexane-1-carboxylic acid]	11	130
Cn1cnc2ccc(COc3ccc(Cl)c4c3[C@@H](CN3CCCC3=O)N(C(=O)[C@@H]3CCCC[C@@H]3C(=O)O)CC4)nc21 [Example 99, (1S,2R)-2-((S)-5-chloro-8-((3-methyl-3H-imidazo [4,5-b]pyridin-5-yl)methoxy)-1-((2-oxopyrrolidin-1-yl)methyl)-1,2,3,4-tetrahydroisoquinoline-2-carbonyl) cyclohexane-1-carboxylic acid]	9.7	520
CC(Oc1ccc(Br)c2c1[C@@H](CN1Cc3ccccc3C1=O)N(C(=O)[C@@H]1CCCC[C@@H]1C(=O)O)CC2)c1cn(C)nn1 (stereo partly drawn) [Example 45, (1S,2R)-2-((1S)-5-bromo-8-(1-(1-methyl-1H-1,2,3-triazol-4-yl)ethoxy)-1-((1-oxoisoindolin-2-yl)methyl)-1,2,3,4-tetrahydroisoquinoline-2-carbonyl)cyclohexane-1-carboxylic acid]	4.9	110
CC(C)c1nc(COc2ccc(Cl)c3c2[C@@H](CN2CCCC2=O)N(C(=O)[C@@H]2CCCC[C@@H]2C(=O)O)CC3)no1 [Example 83, (1S,2R)-2-((S)-5-Chloro-8-((5-isopropyl-1,2,4-oxadiazol-3-yl)methoxy)-1-((2-oxopyrrolidin-1-yl)methyl)-1,2,3,4-tetrahydroisoquinoline-2-carbonyl) cyclohexane-1-carboxylic acid]	7.8	35
O=C(O)[C@H]1CCCC[C@H]1C(=O)N1CCc2c(Cl)ccc(OCc3cccnn3)c2[C@H]1CN1CCCC1=O [Example 88, (1S,2R)-2-((S)-5-Chloro-1-((2-oxopyrrolidin-1-yl)methyl)-8-(pyridazin-3-ylmethoxy)-1,2,3,4-tetrahydroisoquinoline-2-carbonyl) cyclohexane-1-carboxylic acid]	11	78
O=C(NCCOc1cccc2c1[C@@H](CN1C(=O)c3ccccc3C1=O)N(C(=O)[C@@H]1CCCC[C@@H]1C(=O)O)CC2)c1nc2ccccc2o1 [Example 2, (1S,2R)-2-((S)-8-(2-(Benzo[d]oxazole-2-carboxamido)ethoxy)-1-((1,3-dioxoisoindolin-2-yl)methyl)-1,2,3,4-tetrahydroisoquinoline-2-carbonyl)cyclohexane-1-carboxylic acid]	12	150
C[C@H]1CC(=O)N(C[C@@H]2c3c(OCc4nnn(C)c4C(F)F)ccc(Cl)c3CCN2C(=O)[C@@H]2CCC[C@]2(C)C(=O)O)C1 [Example 116, (1S,2R)-2-((S)-5-chloro-8-((5-(difluoromethyl)-1-methyl-1H-1,2,3-triazol-4-yl)methoxy)-1-(((S)-4-methyl-2-oxopyrrolidin-1-yl)methyl)-1,2,3,4-tetrahydroisoquinoline-2-carbonyl)-1-methylcyclopentane-1-carboxylic acid]	73	1900
O=C(O)[C@H]1CCCC[C@H]1C(=O)N1CCc2c(Cl)ccc(OCc3nnc4ccccn34)c2[C@H]1CN1CCCC1=O [Example 94, (1S,2R)-2-((S)-8-([1,2,4]Triazolo[4,3-a]pyridin-3-ylmethoxy)-5-chloro-1-((2-oxopyrrolidin-1-yl)methyl)-1,2,3,4-tetrahydroisoquinoline-2-carbonyl) cyclohexane-1-carboxylic acid]	7.7	7.8
Cn1nnc(COc2ccc(Cl)c3c2[C@@H](CN2CCCC2=O)N(C(=O)[C@@H]2CCCC[C@@H]2C(=O)O)CC3)c1C(F)F [Example 82, (1S,2R)-2-((S)-5-Chloro-8-((5-(difluoromethyl)-1-methyl-1H-1,2,3-triazol-4-yl)methoxy)-1-((2-oxopyrrolidin-1-yl)methyl)-1,2,3,4-tetrahydroisoquinoline-2-carbonyl) cyclohexane-1-carboxylic acid]	7.7	1.3
C[C@H](CC(=O)O)C(=O)N1CCc2c(Cl)ccc(OCc3noc4ccccc34)c2[C@H]1CN1CCCC1=O [Example 80, (R)-4-((S)-8-(Benzo[d]isoxazol-3-ylmethoxy)-5-chloro-1-((2-oxopyrrolidin-1-yl)methyl)-3,4-dihydroisoquinolin-2(1H)-yl)-3-methyl-4-oxobutanoic acid]	4.8	110

The next lines start with results.

IC50 [1] [nM]	SMILES	EC50 [2] [nM]
6.2	Cn1nnc(COc2c(F)cc(Cl)c3c2[C@@H](CN2CC4(CC4)CC2=O)N(C(=O)[C@@H]2CCCC[C@]2(C)C(=O)O)CC3)c1C(F)F [Example 203, (1S,2R)-2-((S)-5-chloro-8-((5-(difluoromethyl)-1-methyl-1H-1,2,3-triazol-4-yl)methoxy)-7-fluoro-1-((6-oxo-5-azaspiro[2.4]heptan-5-yl)methyl)-1,2,3,4-tetrahydroisoquinoline-2-carbonyl)-1-methylcyclohexane-1-carboxylic acid]	0.4
14	Cn1cnnc1COc1ccc(Cl)c2c1[C@@H](CN1CC3(CC3)CC1=O)N(C(=O)[C@@H]1CCCC[C@]1(C)C(=O)O)CC2 [Example 175, (1S,2R)-2-((S)-5-chloro-8-((4-methyl-4H-1,2,4-triazol-3-yl)methoxy)-1-((6-oxo-5-azaspiro [2.4]heptan-5-yl)methyl)-1,2,3,4-tetrahydroisoquinoline-2-carbonyl)-1-methylcyclohexane-1-carboxylic acid]	35
5.7	Cn1nnc(COc2ccc(Cl)c3c2[C@@H](CN2CC(C(F)(F)F)CC2=O)N(C(=O)[C@@H]2CCCC[C@]2(C)C(=O)O)CC3)c1C(F)F (single isomer, unassigned) [Example 212]	1.9
9.8	Cn1nnc(COc2ccc(Cl)c3c2[C@@H](CN2CC4(CC4)CC2=O)N(C(=O)[C@@H]2CC(F)(F)CC[C@]2(C)C(=O)O)CC3)c1C(F)F [Example 217, (1S,2R)-2-((S)-5-chloro-8-((5-(difluoromethyl)-1-methyl-1H-1,2,3-triazol-4-yl)methoxy)-1-((6-oxo-5-azaspiro[2.4]heptan-5-yl)methyl)-1,2,3,4-tetrahydroisoquinoline-2-carbonyl)-4,4-difluoro-1-methylcyclohexane-1-carboxylic acid]	43
9	Cn1nnc(COc2ccc(Cl)c3c2[C@@H](CN2CC4(CC4)CC2=O)N(C(=O)[C@@H]2CCC[C@]2(C)C(=O)O)CC3)c1C(F)(F)F [Example 153, (1S,2R)-2-((S)-5-chloro-8-((1-methyl-5-(trifluoromethyl)-1H-1,2,3-triazol-4-yl)methoxy)-1-((6-oxo-5-azaspiro [2.4]heptan-5-yl)methyl)-1,2,3,4-tetrahydroisoquinoline-2-carbonyl)-1-methylcyclopentane-1-carboxylic acid]	7
62	Cn1nnc(COc2ccc(Cl)c3c2[C@@H](CN2CCCC2=O)N(C(=O)[C@H]2CCCC[C@]2(C)C(=O)O)CC3)c1C(F)(F)F [Example 169, (1S,2S)-2-((S)-5-chloro-8-((1-methyl-5-(trifluoromethyl)-1H-1,2,3-triazol-4-yl)methoxy)-1-((2-oxopyrrolidin-1-yl)methyl)-1,2,3,4-tetrahydroisoquinoline-2-carbonyl)-1-methylcyclohexane-1-carboxylic acid]	140
5.9	Cc1onc(COc2ccc(Cl)c3c2[C@@H](CN2CC4(CC4)CC2=O)N(C(=O)[C@@H]2CCCC[C@]2(C)C(=O)O)CC3)c1C(F)F [Example 157, (1S,2R)-2-((S)-5-chloro-8-((4-(difluoromethyl)-5-methylisoxazol-3-yl)methoxy)-1-((6-oxo-5-azaspiro [2.4]heptan-5-yl)methyl)-1,2,3,4-tetrahydroisoquinoline-2-carbonyl)-1-methylcyclohexane-1-carboxylic acid]	4.9
580	Cn1nnc(COc2ccc(Cl)c3c2[C@@H](CN2CC4(CC4)CC2=O)N(C(=O)[C@@H]2C[C@H]4C[C@H]4C[C@]2(C)C(=O)O)CC3)c1C(F)F [Example 208, (1S,3S,4R,6R)-4-((S)-5-chloro-8-((5-(difluoromethyl)-1-methyl-1H-1,2,3-triazol-4-yl)methoxy)-1-((6-oxo-5-azaspiro[2.4]heptan-5-yl)methyl)-1,2,3,4-tetrahydroisoquinoline-2-carbonyl)-3-methylbicyclo[4.1.0]heptane-3-carboxylic acid]	3300
6.6	C[C@]1(C(=O)O)CCCC[C@H]1C(=O)N1CCc2c(Cl)ccc(OCc3nnn4c3CCCC4)c2[C@H]1CN1CC2(CC2)CC1=O [Example 170, (1S,2R)-2-((S)-5-chloro-1-((6-oxo-5-azaspiro[2.4]heptan-5-yl)methyl)-8-((4,5,6,7-tetrahydro-[1,2,3]triazolo[1,5-a]pyridin-3-yl)methoxy)-1,2,3,4-tetrahydroisoquinoline-2-carbonyl)-1-methylcyclohexane-1-carboxylic acid]	0.11
5.1	Cn1nnc(COc2ccc(Cl)c3c2[C@@H](CN2CC4(CC4)CC2=O)N(C(=O)[C@@H]2C[C@@H]4C[C@@H]4C[C@]2(C)C(=O)O)CC3)c1C(F)F [Example 207, (1R,3S,4R,6S)-4-((S)-5-chloro-8-((5-(difluoromethyl)-1-methyl-1H-1,2,3-triazol-4-yl)methoxy)-1-((6-oxo-5-azaspiro[2.4]heptan-5-yl)methyl)-1,2,3,4-tetrahydroisoquinoline-2-carbonyl)-3-methylbicyclo[4.1.0]heptane-3-carboxylic acid]	0.89
